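Five concentrations, 48 hours, 96-well plates. TGI: total growth inhibition.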
Legend:
Assay in all cases: NCI-60 cell line screen, 48 h
ACHN renal = tested on: ACHN renal
HOP-92 NSCLC = tested on: HOP-92 NSCLC
A549 NSCLC = tested on: A549 NSCLC
SK-MEL-5 melanoma = tested on: SK-MEL-5 melanoma
T-47D breast = tested on: T-47D breast
MOLT-4 leukemia = tested on: MOLT-4 leukemia
SK-OV-3 ovarian = tested on: SK-OV-3 ovarian
RXF 393 renal = tested on: RXF 393 renal
U251 CNS = tested on: U251 CNS
NCI-H23 lung = tested on: NCI-H23 lung
HCT-116 colon = tested on: HCT-116 colon
K-562 leukemia = tested on: K-562 leukemia
MDA-MB-435 = tested on: MDA-MB-435
SW-620 colon = tested on: SW-620 colon
PC-3 prostate = tested on: PC-3 prostate
A498 renal = tested on: A498 renal
NCI-H460 lung = tested on: NCI-H460 lung
EKVX NSCLC = tested on: EKVX NSCLC
MDA-N = tested on: MDA-N
KM20L2 colon = tested on: KM20L2 colon

Row | Compound | TGI (ACHN renal) [µM] | TGI (HOP-92 NSCLC) [µM] | TGI (A549 NSCLC) [µM] | TGI (SK-MEL-5 melanoma) [µM] | TGI (T-47D breast) [µM] | TGI (MOLT-4 leukemia) [µM] | TGI (SK-OV-3 ovarian) [µM] | TGI (RXF 393 renal) [µM] | TGI (U251 CNS) [µM] | TGI (NCI-H23 lung) [µM] | TGI (HCT-116 colon) [µM] | TGI (K-562 leukemia) [µM] | TGI (MDA-MB-435) [µM] | TGI (SW-620 colon) [µM] | TGI (PC-3 prostate) [µM] | TGI (A498 renal) [µM] | TGI (NCI-H460 lung) [µM] | TGI (EKVX NSCLC) [µM] | TGI (MDA-N) [µM] | TGI (KM20L2 colon) [µM]
1 | COc1ccc2c3c1OC1C34CCN(C)C(C2)C4=CC(I)C1(OC)OC (configuration not stated) | 23.4 | 24.5 | 54.8 | 25.6 | 48.8 | 21.2 | 28.9 | 23.1 | 29.8 | 21.1 | 14.6 | 23.4 | 15.5 | 20.1 | 23.2 | 56.7 | 28 | 33.8 | 18.8 | 
2 | CC(CN(C)C)C(=O)c1ccccc1 (configuration not stated) | > 56.5 | 6.87 | > 100 | > 100 |  | 27.6 |  | > 54.2 | > 100 | 68 | > 53 | > 100 |  | 27 |  | > 76.5 | > 100 | > 79 |  | > 87.5
3 | COc1ccc(C2C3CCCC(C3=O)C(c3ccc(OC)cc3)N2N=O)cc1 (configuration not stated) |  | > 100 | > 88.2 | 32.4 |  | > 61.6 | > 87.6 | 41.1 | > 100 | 44.5 | > 74.9 | > 66 |  | > 100 |  | 25.4 | 42.2 | 99.6 |  | > 100
4 | O=[N+]([O-])/C(C(Cl)=C(Cl)Cl)=C(\N1CCCCC1)n1nnc2ccccc21 | 42.3 | 39.6 | 51.1 | 32.7 | > 100 | 18.3 | 68.2 | 43.6 | 31.1 | 38.8 | 33.4 | 22.5 | > 100 | 39.1 | 32.8 | 39.1 | 47.6 | 26.4 | 44.1 | 
5 | O=S(=O)(/N=C(\NO)Nc1ccc(Cl)cc1)c1ccccc1 | 36.3 | 22.4 | > 100 | 21.8 | > 83.3 | > 56.6 | > 100 | 40 | > 100 | > 100 | 24.3 | > 100 | > 64 | > 100 | 37.3 | 27.3 | > 59.3 | 26.1 | 27.7 | 
6 | CCN(CC)c1ccc2cc(C(=O)Nc3ccc(C)cc3)c(=N)oc2c1 | > 100 | > 100 | > 100 | > 100 | > 100 | > 100 | > 100 | > 100 | > 100 | > 100 | > 100 | > 100 | > 100 | > 100 | > 100 | > 100 | > 100 | > 100 | > 100 | 
7 | O=C(NNS(=O)(=O)c1ccccc1)c1cccnc1 | > 100 | > 100 | > 100 | > 100 | > 100 | > 100 | > 100 | > 100 | > 100 | > 100 | > 100 | > 100 | > 100 | > 100 | > 100 | > 100 | > 100 | > 100 | > 100 | 
8 | CCN(CC)CCCNc1[nH]ncc2c(C)c3nc4ccc(OC)cc4c3cc12 | 5.95 | 3.14 | 2.73 | 2.83 | 3.36 | 0.0904 | 5.33 | 3.37 | 1.77 | 1.97 | 1.41 | 1.64 | 2.46 | 1.58 | 1.73 | 6.35 | 4.66 | 10.9 | 1.93 | 
9 | Nc1ccc(-c2nc3ccccc3s2)cc1C#Cc1ccccc1 | 38.5 | 52.8 | 49 | 31.1 | > 100 | > 100 | 60.7 | 34.6 | 38.6 | 52.6 | 27.4 | 84.4 | 36 | 34.7 | 45.4 | 42.5 | 35.1 | 39.8 | 35.8 | 
10 | CC(C)(C)C1=CC(=C2C=Cc3ccccc3O2)C=C(C(C)(C)C)C1=O | 19.2 | > 51 | 26.2 | 13.9 | 9.97 | > 21.3 | > 42.4 | 7.71 | 7.51 | 30.8 | 11.4 | 29.9 | 5.11 | 13.9 | 16.2 | 16.4 | 4.04 | 43.6 | 7.39 | 
11 | COc1c2c(cc3c1C1(O)Cc4ccc5c(c4C[N+]1(C)CC3)OCO5)OCO2 (configuration not stated) | > 100 | > 100 | > 100 | > 100 | > 100 | > 100 | > 100 | > 100 | > 100 | > 100 | > 100 | > 100 | > 100 | > 100 | > 100 | > 100 | > 100 | > 100 | > 100 | 
12 | Nc1c2c(nc3ccccc13)-c1ccccc1NCCC2 | > 100 | 65.6 | > 100 | 28.6 | 77.9 | > 100 | > 100 | 33.2 | > 100 | > 100 | 94.3 | > 100 | 58.2 | > 100 | > 100 | 55.5 | 38 | > 100 | 39 | 
13 | CC(C)/C(=N\[N+](C)(C)C)c1ccccc1 | > 100 | > 100 | > 100 | > 100 | > 100 | > 100 | > 100 | > 100 | > 100 | > 100 | > 100 | > 100 | > 100 | > 100 | > 100 | > 100 | > 100 | > 100 | > 100 | 
14 | COc1cc2ccc1OCc1cccc(n1)COc1ccc(cc1OC)C=NCCNCCNCCN=C2 | > 100 | > 100 | > 100 | > 100 | > 100 | > 100 | > 100 | > 100 | > 100 | > 100 | > 100 | > 100 | > 100 | > 100 | > 100 | > 100 | > 100 | > 100 | > 100 | 
15 | NC(Cc1ncccn1)C(=O)O (configuration not stated) | > 100 | > 100 | > 100 | > 100 | > 100 | > 100 | > 100 | > 100 | > 100 | > 100 | > 100 | > 100 | > 100 | > 100 | > 100 | > 100 | > 100 | > 100 | > 100 | 
16 | CSc1c(CC(=O)Nc2ccc(Cl)cc2)n(Cc2ccccc2)c2ccccc12 | > 100 | 42.8 | > 100 | > 100 | > 100 | > 100 | > 100 | 30.1 | 25 | > 100 | > 100 | > 100 | > 100 | > 100 | 27.7 | 25.9 | > 100 | > 100 | > 100 | 
17 | O=C(O)c1ccc(Nc2nc3cc(C(F)(F)F)ccc3n3cccc23)cc1 | > 100 | > 100 | > 100 | 38.8 | 70.4 | 67.7 | > 100 | 58.8 | 52.6 | > 100 | 68.2 | 67.7 | > 100 | > 100 | 93.5 | > 100 | 38.7 | > 100 | > 100 | 
18 | C=CCc1cc(C(Cc2ccccc2)NC(C)C)cc(OCc2ccccc2)c1OCc1ccccc1 (configuration not stated) | 30.5 | 25.3 | 30.5 | 30.6 | 29.2 | 26.7 | 27 | 30.4 | 27.7 | 33.8 | 31.2 | 40.9 | 29.2 | 32.5 | 28.8 | 29.2 | 28.5 | 30 | 25.8 | 
19 | CC1CN=C(c2cccc(-c3nc(-c4cccc(C5=NCC(C)N5)c4)nc(N(C)C)n3)c2)N1 (configuration not stated) | 10.1 | 20.3 | 9.27 | 7.93 | 15.1 | 2.7 | 4.61 | 11.8 | 2.13 | 7.77 | 2.49 | 2.77 | 2.61 | 3.72 | 3.31 | 5.99 | 4.38 | 8.64 | 4.08 | 
20 | C=CCCCCOC1C=CC(O)C(CO)O1 (configuration not stated) | > 100 | > 100 | > 100 | > 100 | > 100 | > 100 | > 100 | > 100 | > 100 | > 100 | > 100 | > 100 | > 100 | > 100 | > 100 | > 100 | > 100 | > 100 | > 100 | 
21 | COc1cc(NC=C2C(=O)OC(C)(C)OC2=O)c(OC)c(C)c1OC | > 100 | > 100 | > 100 | > 100 | > 100 | > 100 | > 100 | > 100 | > 100 | > 100 | > 100 | > 100 | > 100 | > 100 | > 100 | > 100 | > 100 | > 100 | > 100 | 
22 | COc1ccc2c(c1)c(=O)c1c(NCCN(C)C)ccc3nnn2c31 | 14.6 | 10.8 | 12.8 | 14.1 |  | 2.99 | 23.9 | 10.5 | 16.5 | 13.1 | 13.4 | 15.5 |  | 9.11 |  | 21.7 | 8.54 | 17.9 |  | 14.7

— PubChem BioAssay (NCI)
